For assay [1], the system named is mock-infected MT-4 cell. As to conditions: read-out: IC50, concentration that inhibits mock-infected MT-4 cell growth by 50%; mock-infected MT-4 cells; cited from earlier work.
The next assay has as its system HIV-1IIIB. As to conditions: cited from earlier work; for EC50: HIV-1IIIB infected H9 lymphocytes.
For another assay, the system named is HIV-1NL4-3. In words: HIV-1NL4-3 inhibition assay in MT-4 lymphocytes. As to conditions: HIV-1NL4-3 infected MT-4 cells; for fold more active than the corresponding compound not linked to AZT: 49 vs 63, 52 vs 64. The class given is cell-based.
Assay [2] concerns mock-infected MT-4 cell. Put plainly: Growth inhibition of mock-infected MT-4 cells. The class given is cell-based. Conditions: Homo sapiens, MT4, read-out: IC50, concentration that inhibits mock-infected MT-4 cell growth by 50%.

SMILES strings stand for the structures. Like-named read-outs stand apart in the source and are kept apart here.

Regarding `C=C(C)[C@@H]1CC[C@]2(C(=O)O)CC[C@]3(C)[C@H](CC[C@@H]4[C@@]5(C)CC[C@H](OC(=O)CC(C)(C)C(=O)O)C(C)(C)[C@@H]5CC[C@]43C)[C@@H]12` [Compound 2, 3-O-(3',3'-dimethylsuccinyl)betulinic acid], the IC50 in the assay on mock-infected MT-4 cell [1] was over 5000 nM. Also, the EC50 in the assay on HIV-1IIIB was under 0.35 nM.

As to `CC(C)[C@@H]1CC[C@]2(CO)CC[C@]3(C)[C@H](CC[C@@H]4[C@@]5(C)CC[C@H](OC(=O)CCCC(=O)O)C(C)(C)[C@@H]5CC[C@]43C)[C@@H]12` [Compound 4, 3-O-glutaryldihydrobetulin], in the assay with HIV-1IIIB, the EC50 was 0.02 nM.

Take `C=C(C)[C@@H]1CC[C@]2(COC(=O)CC(C)(C)CC(=O)O)CC[C@]3(C)[C@H](CC[C@@H]4[C@@]5(C)CC[C@H](OC(=O)CC(C)(C)CC(=O)O)C(C)(C)[C@@H]5CC[C@]43C)[C@@H]12` [Compound 5, 3,28-di-O-(3',3'-dimethylglutaryl)betulin]: the EC50 in the assay on HIV-1IIIB is 0.66 nM.

In the case of `C=C(C)[C@@H]1CC[C@]2(COC(=O)C(C)(C)CC(=O)O)CC[C@]3(C)[C@H](CC[C@@H]4[C@@]5(C)CC[C@H](OC(=O)CC(C)(C)C(=O)O)C(C)(C)[C@@H]5CC[C@]43C)[C@@H]12` [Compound 6, 3-O-(3',3'-dimethylsuccinyl)-28-O-(2",2"-dimethylsuccinyl)betulin], the “fold more potent against HIV replication than its isomer with a 3,3-dimethylsuccinyl side chain at C-28” value in the assay with HIV-1IIIB (H9 lymphocytes assay) is recorded as 230 fold. In addition, in the assay with HIV-1IIIB, the EC50 is 0.87 nM.

As for `C=C(C)[C@@H]1CC[C@]2(COC(=O)CCC(=O)OC[C@H]3O[C@@H](n4cc(C)c(=O)[nH]c4=O)C[C@@H]3N=[N+]=[N-])CC[C@]3(C)[C@H](CC[C@@H]4[C@@]5(C)CC[C@H](OC(=O)CC(C)(C)C(=O)O)C(C)(C)[C@@H]5CC[C@]43C)[C@@H]12` [Compound 49, 3'-Azido-3'-deoxythymidine-5'-yl 3-O-(3',3'-dimethylsuccinyl)-lup-20(29)en-28-yl succinate], the “fold more active than the corresponding compound not linked to AZT” value with HIV-1NL4-3 is reported as “four”.

Turning to `C=C(C)[C@@H]1CC[C@]2(COC(=O)CCCC(=O)OC[C@H]3O[C@@H](n4cc(C)c(=O)[nH]c4=O)C[C@@H]3N=[N+]=[N-])CC[C@]3(C)[C@H](CC[C@@H]4[C@@]5(C)CC[C@H](OC(=O)CC(C)(C)C(=O)O)C(C)(C)[C@@H]5CC[C@]43C)[C@@H]12` [Compound 52, 3'-Azido-3'-deoxythymidine-5'-yl 3-O-(3',3'-dimethylsuccinyl)-lup-20(29)en-28-yl glutarate], the “fold more active than the corresponding compound not linked to AZT” value in the assay with HIV-1NL4-3 is given as “five”.

`C=C(C)[C@@H]1CC[C@]2(COC(=O)CC(C)(C)CC(=O)OC[C@H]3O[C@@H](n4cc(C)c(=O)[nH]c4=O)C[C@@H]3N=[N+]=[N-])CC[C@]3(C)[C@H](CC[C@@H]4[C@@]5(C)CC[C@H](OC(=O)CC(C)(C)CC(=O)O)C(C)(C)[C@@H]5CC[C@]43C)[C@@H]12` [Compound 54, 3'-Azido-3'-deoxythymidine-5'-yl 3-O-(3',3'-dimethylglutaryl)-lup-20(29)en-28-yl 3,3-dimethylglutarate]: in the assay with HIV-1NL4-3, the “anti-HIV activity in words” value is recorded as “only moderate activity”.

Consider `Cc1cn([C@H]2C[C@H](N=[N+]=[N-])C(COC(=O)CC(C)(C)CC(=O)OC[C@]34CC[C@@H](C(C)C)[C@@H]3[C@H]3CC[C@@H]5[C@@]6(C)CC[C@H](OC(=O)CCCC(=O)O)C(C)(C)[C@@H]6CC[C@@]5(C)[C@]3(C)CC4)O2)c(=O)[nH]c1=O` (stereo partly drawn) [Compound 61, 3'-Azido-3'-deoxythymidine-5'-yl 3-O-glutaryl-lup-28-yl 3,3-dimethylglutarate], for which the “anti-HIV activity in words” value with HIV-1NL4-3 is “the weakest compound”.

Take `Cc1cn([C@H]2C[C@H](N=[N+]=[N-])C(COC(=O)CC(C)(C)CC(=O)OC[C@]34CC[C@@H](C(C)C)[C@@H]3[C@H]3CC[C@@H]5[C@@]6(C)CC[C@H](OC(=O)CC(C)(C)CC(=O)O)C(C)(C)[C@@H]6CC[C@@]5(C)[C@]3(C)CC4)O2)c(=O)[nH]c1=O` (stereo partly drawn) [Compound 62, 3'-Azido-3'-deoxythymidine-5'-yl 3-O-(3',3'-dimethylglutaryl)-lup-28-yl 3,3-dimethylglutarate]: the “anti-HIV activity in words” value in the assay on HIV-1NL4-3 was “only moderate activity”.

On to `C=C(C)[C@@H]1CC[C@]2(COC(=O)CCCC(=O)O)CC[C@]3(C)[C@H](CC[C@@H]4[C@@]5(C)CC[C@H](OC(=O)CC(C)(C)C(=O)O)C(C)(C)[C@@H]5CC[C@]43C)[C@@H]12` [Compound 64], for which, in the assay with mock-infected MT-4 cell [2], the IC50 was over 14600 nM.

The record behind these values is PMC3016297 (Bioorganic & medicinal chemistry, 2010).
